The record followed here is patent US6331548A, “1-cycloalkyl-1,8-naphthyridin-4-one derivative as type IV phosphodiesterase inhibitor” (Suntory Limited, priority 1998, dated 2001).

Assay [1] deals with type IV phosphodiesterase. In words: Type IV phosphodiesterase inhibiting activity. It counts as biochemical, human. The following applies: U937 type IV phosphodiesterase fraction, 0.28 μM cAMP, pH 7.5, 30° C., 30 minutes; read-out: PDEIV-IC50. How it is done: The following assay was used to evaluate the ability of the compound of the present invention to suppress type IV phosphodiesterase, according to Biochemical. Pharmacol. 48 (6), 1219-1223 (1994).
1) Type IV phosphodiesterase activity fractions were prepared as follows. Namely, human histiocytic lymphoma cell line U937 was cultured in an RPMI1640 medium containing 10% fetal calf serum to obtain 10^9 cells of U937. The cells were recovered by centrifugation and suspended in 40 ml of buffer A (20 mM bis-tris, 5 mM 2-mercaptoethanol, 2 mM benzamidine, 2 mM EDTA, 0.1 mM 4-(2-aminoethyl)benzensulfonyl hydrochloride, 50 mM sodium acetate, pH=6.5). The cells were broken by a sonication and centrifuged (4° C., 10,000 G, 10 minutes) to obtain a supernatant. This was filtered by a 0.45 μm filter to obtain the soluble fraction.
2) The soluble fraction obtained was applied into a 1×10 cm DEAE Sepharose column equalibrated with the buffer A. 120 ml of the buffer A containing a linear gradient solution of 0.05 to 1M sodium acetate was used to separate the phosphodiesterase and recover 24 5-ml fractions. Each of the fractions was measured for the cAMP phosphodiesterase activity.
3) The test compound was reacted at a desired concentration in a reaction mixture containing 20 mM tris-HCl (pH 7.5), 1 mM MgCl2, 100 μM EDTA, 330 μg/ml calf serum albumin, 10 μg/ml 5'-nucleotidase, 0.4 μCi ^3 H-cAMP (0.28 μM cAMP) and the type IV phosphodiesterase stored solution at 30° C. for 30 minutes. QAE-Sephadex suspended in 10 mM of hepes-Na (pH -7.0) was added to the reaction mixture which was then allowed to stand for 5 minutes, then the supernatant was obtained, QAE-Sephadex was further added, to the supernatant, and was allowed to stand for 5 minutes, then the supernatant was obtained and measured for radioactivity.

The subject of assay [2] is TNF-α production by LPS stimulated macrophages. In words: TNF-α production inhibitory activity by LPS stimulated macrophages. It counts as cell-based. To be noted: Macrophage, BALB/c mouse peritoneal macrophages, cultured for 8 hours, ELISA. How it is done:
The following assay was used to evaluate the ability of the compound of the present invention to suppress TNF-α production by LPS stimulated macrophages according to Immunopharmacol. 29, 121-127 (1995).
1) 6 to 10 week old female BALB/c mice were used, 2 ml portions of thioglycolate were intraperitoneally administered, and the abdominal cavities were washed by 10 ml of PBS after 4 days, whereby 1 to 2×10^7 peritoneal cells were obtained per mouse. These were suspended in a hemocyte solution (0.75% ammonium chloride, 17 mM tris-hydrochlorate buffer, pH7.2), centrifuged, then resuspended in an RPMI1640 medium including 10% fetal calf serum and seeded in a 96-well cell culture plate at a density of 1×10^5 cells/50 μl/well. Since these cells adhered strongly to the tissue culture plate and were positive in nonspecific esterase staining, they were used for the test as mouse peritoneal macrophages. Mouse peritoneal macrophages were precultured overnight at 37° C. in […] for the experiment.
2) E. Coli (serum type 055:B5) derived LPS was dissolved in PBS in a concentration of 1 mg/ml, then sterilized by filtration. The test compound was dissolved in DMSO to make a 1000-fold concentration solution of the final concentration of use. 10 μl of the above LPS stock solution (final concentration 10 μg/ml) and 1 μl of the tested substance stock solution were added and mixed in 0.5 ml of RPMI1640 medium containing 10% fetal calf serum. This was added to the above cells at 50 μl/well and cultured for 8 hours. The cultured supernatant was recovered from each well and the TNF-α concentration was measured by the ELISA method (Cytoscreen® Immunoassay Kit Mouse TNF-α, BioSourse International).
The comparative example was the compound described in WO-A-97-04775, Example 1, mentioned above.
A general note: ELISA stands for enzyme-linked immunosorbent assay.

pIC50: −log10 of the molar value. Counter-ions that a name gives are not always drawn.

What is called pIC50 is the IC50 on a negative log10 scale, so that one unit is a factor of ten. With `CN1CCC(n2cc(C(=O)Nc3c(Cl)cncc3Cl)c(=O)c3cccnc32)CC1` [Example 51, N-(3,5-dichloropyridin-4-yl)-1-(1-methylpiperidin-4-yl)-1,4-dihydro[1,8]naphthylidin-4-one-3-carboxamide], the pIC50 in assay [1] is 7.37; in assay [2], 7.30.
Take `CC(=O)N1CCC(n2cc(C(=O)Nc3c(Cl)cncc3Cl)c(=O)c3cccnc32)CC1` [Example 28, N-(3,5-dichloropyridin-4-yl)-1-(1-acetylpiperidin-4-yl)-1,4-dihydro[1,8]naphthylidin-4-one-3-carboxamide]: the pIC50 in assay [1] was 8.11; in assay [2], 7.00.
Turning to `CCNC(=O)N1CCC(n2cc(C(=O)Nc3c(Cl)cncc3Cl)c(=O)c3cccnc32)CC1` [Example 27, N-(3,5-dichloropyridin-4-yl)-1-(1-ethylaminocarbonylpiperidin-4-yl)-1,4-dihydro[1,8]naphthylidin-4-one-3-carboxamide], the negative-log IC50 (pIC50) in assay [1] was 8.89; in assay [2], 8.00.
For the compound `O=C(Nc1ccncc1)c1cn([C@H]2CC[C@H](O)CC2)c2ncccc2c1=O` [Example 113, N-(4-pyridyl)-1-(trans-4-hydroxycyclohexyl)-1,4-dihydro[1,8]naphthylidin-4-one-3-carboxamide], the figures for the pIC50 in assay [1] and in assay [2] were 6.40 and 6.52, respectively.
On the same counts, the results for `COC(=O)N1CC[C@@H](n2cc(C(=O)Nc3c(Cl)cncc3Cl)c(=O)c3cccnc32)C1` [Example 17, (R)-N-(3,5-dichloropyridin-4-yl)-1-(1-methoxycarbonylpyrrolidin-3-yl)-1,4-dihydro[1,8]naphthylidin-4-one-3-carboxamide] are 8.32 and 8.00.
Turning to `CN(C)C(=O)[C@@H]1C[C@H](n2cc(C(=O)Nc3c(Cl)cncc3Cl)c(=O)c3cccnc32)CN1` [Example 93, N-(3,5-dichloropyridin-4-yl)-1-[(3S,5S)-(5-dimethylaminocarbonyl)pyrrolidin-3-yl]-1,4-dihydro[1,8]naphthylidin-4-one-3-carboxamide], the pIC50 is 7.16 in assay [1] and 5.70 in assay [2].
For `CN1CCN(n2cc(C(=O)Nc3c(Cl)cncc3Cl)c(=O)c3cccnc32)CC1` [Example 55, N-(3,5-dichloropyridin-4-yl)-1-(4-methylpiperazine-1-yl)-1,4-dihydro[1,8]naphthylidin-4-one-3-carboxamide], the pIC50 in assay [1] is 8.17; in assay [2], 8.00.
Turning to `O=CN1CCC(n2cc(C(=O)Nc3c(Cl)cncc3Cl)c(=O)c3cccnc32)CC1` [Example 48, N-(3,5-dichloropyridin-4-yl)-1-(1-formylpiperidin-4-yl)-1,4-dihydro[1,8]naphthylidin-4-one-3-carboxamide], the negative logarithm of the IC50 (pIC50) was 8.32 in assay [1] and 5.82 in assay [2].
With `O=C(Nc1ccncc1)c1cn(C2CCCC2)c2ncccc2c1=O` [Example 149, N-(4-pyridyl)-1-cyclopentyl-1,4-dihydro[1,8]naphthylidin-4-one-3-carboxamide], the pIC50 is 7.39 in assay [1] and 7.11 in assay [2].
In the case of `O=C(Nc1c(Cl)cncc1Cl)c1cn([C@H]2CCOC2)c2ncccc2c1=O` [Example 44, N-(3,5-dichloropyridine-4-yl)-1-[(S)-tetrahydro-3-furanyl]-1,4-dihydro[1,8]naphthylidin-4-one-3-carboxamide], the figures for the pIC50 in assay [1] and in assay [2] were 8.57 and 8.00, respectively.
Consider `O=C(Nc1c(Cl)cncc1Cl)c1cn(C2CCNCC2)c2ncccc2c1=O` [Example 47, N-(3,5-dichloropyridin-4-yl)-1-(4-piperidyl)-1,4-dihydro[1,8]naphthylidin-4-one-3-carboxamide hydrochloride], for which the negative logarithm of the IC50 (pIC50) in assay [1] was 7.40; in assay [2], 6.10.
As for `COc1ccc(C2CNC(=O)C2)cc1OC1CCCC1` (stereo not shown) [Rolipram, reference compound], the pIC50 in assay [2] is 7.00.
As for `CCNC(=O)N1CC[C@H](n2cc(C(=O)Nc3c(Cl)cncc3Cl)c(=O)c3cccnc32)C1` [Example 18, (S)-N-(3,5-dichloropyridin-4-yl)-1-(1-ethylaminocarbonylpyrrolidin-3-yl)-1,4-dihydro[1,8]naphthylidin-4-one-3-carboxamide], the pIC50 was 8.33 in assay [1] and 9.00 in assay [2].
As to `NC(=O)N1CC[C@H](n2cc(C(=O)Nc3c(Cl)cncc3Cl)c(=O)c3cccnc32)C1` [Example 20, (S)-N-(3,5-dichloropyridin-4-yl)-1-(1-aminocarbonylpyrrolidin-3-yl)-1,4-dihydro[1,8]naphthylidin-4-one-3-carboxamide], the pIC50 in assay [1] was 7.92; in assay [2], 5.52.
Regarding `O=C(Nc1c(Cl)cncc1Cl)c1cn(C2CC2)c2ncccc2c1=O` [Example 140, N-(3,5-dichloropyridin-4-yl)-1-cyclopropyl-1,4-dihydro[1,8]naphthylidin-4-one-3-carboxamide], the results for the pIC50 in assay [1] and in assay [2] were 8.60 and 8.00, respectively.
Take `O=C(Nc1ccncc1)c1cn(C2CCSCC2)c2ncccc2c1=O` [Example 100, N-(4-pyridyl)-1-(4-tetrahydrothiopyranyl)-1,4-dihydro[1,8]naphthylidin-4-one-3-carboxamide]: the pIC50 was 7.37 in assay [1] and 7.15 in assay [2].
On to `COC(=O)N1CC(n2cc(C(=O)Nc3cccnc3)c(=O)c3cccnc32)C1` [Example 32, N-(3-pyridyl)-1-(1-methoxycarbonylazetidin-3-yl)-1,4-dihydro[1,8]naphthylidin-4-one-3-carboxamide], for which the pIC50 in assay [1] is 5.66; in assay [2], 5.40.
As to `CN(C)C(=O)[C@@H]1C[C@H](n2cc(C(=O)Nc3c(Cl)cncc3Cl)c(=O)c3cccnc32)CN1C(=O)OCc1ccccc1` [Example 92, N-(3,5-dichloropyridin-4-yl)-1-[(3S,5S)-(1-benzyloxycarbonyl-5-dimethylaminocarbonyl)pyrrolidin-3-yl]-1,4-dihydro[1,8]naphthylidin-4-one-3-carboxamide], the pIC50 in assay [1] is 8.68; in assay [2] it was 7.15.
Consider `O=C(O[C@H]1CC[C@H](n2cc(C(=O)Nc3c(Cl)cncc3Cl)c(=O)c3cccnc32)CC1)c1ccccc1` [Example 130, trans-4-[3-{[(3,5-dichloro-4-pyridinyl)amino]carbonyl}-4-oxo[1,8]naphthylidin-1(4H)-yl]cyclohexylbenzoate], for which the pIC50 in assay [1] is 7.30.
Consider `CC(C)(C)C(=O)O[C@H]1CC[C@H](n2cc(C(=O)Nc3c(Cl)cncc3Cl)c(=O)c3cccnc32)CC1` [Example 128, trans-4-[3-{[(3,5-dichloro-4-pyridinyl)amino]carbonyl}-4-oxo[1,8]naphthylidin-1(4H)-yl]cyclohexylpivalate], for which, in assay [1], the pIC50 was 8.24.
Consider `O=C(Nc1c(Cl)cncc1Cl)c1cn([C@@H]2CC[C@@H](O)C2)c2ncccc2c1=O` [Example 79, N-(3,5-dichloropyridin-4-yl)-1-[(1R,3R)-3-(hydroxy)cyclopentyl]-1,4-dihydro[1,8]naphthylidin-4-one-3-carboxamide], for which the pIC50 in assay [1] was 8.92.
`Cc1cnccc1NC(=O)c1cn([C@H]2CC[C@H](O)CC2)c2ncccc2c1=O` [Example 174, N-(3-methylpyridin-4-yl)-1-(trans-4-hydroxycyclohexyl)-1,4-dihydro[1,8]naphthylidin-4-one-3-carboxamide]: in assay [1], the pIC50 was 6.89.
With `O=C(Nc1ccncc1)c1cn([C@@H]2CCOC2)c2ncccc2c1=O` [Example 38, N-(4-pyridyl)-1-[(R)-tetrahydro-3-furanyl]-1,4-dihydro[1,8]naphthylidin-4-one-3-carboxamide], the negative-log IC50 (pIC50) in assay [1] is 6.48.
